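Values below derive from 48-hour exposures of cells grown in 96-well plates, with endpoints linearly interpolated between the two concentrations bracketing the appropriate inhibition level. TGI: concentration producing complete growth inhibition.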
Key:
Assay in all cases: NCI anticancer screen, dose series, 48 h
ACHN renal = tested on: ACHN renal
HCC-2998 colon = tested on: HCC-2998 colon
HCT-15 colon = tested on: HCT-15 colon
HL-60(TB) leukemia = tested on: HL-60(TB) leukemia
HOP-62 NSCLC = tested on: HOP-62 NSCLC
HT29 colon = tested on: HT29 colon
MALME-3M melanoma = tested on: MALME-3M melanoma
MDA-N = tested on: MDA-N
NCI/ADR-RES ovarian = tested on: NCI/ADR-RES ovarian
OVCAR-3 ovarian = tested on: OVCAR-3 ovarian
SF-295 CNS = tested on: SF-295 CNS
SK-MEL-2 melanoma = tested on: SK-MEL-2 melanoma
SK-OV-3 ovarian = tested on: SK-OV-3 ovarian
SNB-19 CNS = tested on: SNB-19 CNS
T-47D breast = tested on: T-47D breast
M14 melanoma = tested on: M14 melanoma
SF-268 CNS = tested on: SF-268 CNS
RPMI-8226 leukemia = tested on: RPMI-8226 leukemia

Row | SMILES | TGI (ACHN renal) [µM] | TGI (HCC-2998 colon) [µM] | TGI (HCT-15 colon) [µM] | TGI (HL-60(TB) leukemia) [µM] | TGI (HOP-62 NSCLC) [µM] | TGI (HT29 colon) [µM] | TGI (MALME-3M melanoma) [µM] | TGI (MDA-N) [µM] | TGI (NCI/ADR-RES ovarian) [µM] | TGI (OVCAR-3 ovarian) [µM] | TGI (SF-295 CNS) [µM] | TGI (SK-MEL-2 melanoma) [µM] | TGI (SK-OV-3 ovarian) [µM] | TGI (SNB-19 CNS) [µM] | TGI (T-47D breast) [µM] | TGI (M14 melanoma) [µM] | TGI (SF-268 CNS) [µM] | TGI (RPMI-8226 leukemia) [µM]
1 | C/C(=N\Nc1nc2ccccc2[nH]1)c1ccncn1 | 0.986 | > 79.5 | > 100 | 0.054 | 1.3 | > 100 | > 100 | > 100 | 4.54 | 13 | > 44.6 | > 66.1 | 64.3 | > 100 | > 100 |  |  | 
2 | Cc1[nH]c2ncn3ncnc3c2c1Cc1ccccc1 | > 100 | > 100 | > 100 | > 100 | > 100 | > 100 | > 100 | > 100 | > 100 | > 100 | > 100 | > 100 | > 100 | > 100 | > 100 | > 100 | > 100 | 
3 | O=c1[nH]c(=O)n(C2CC(O)C(COP(=O)(O)OC3CC(n4cc(F)c(=O)[nH]c4=O)OC3COP(=O)(O)OC3CC(n4cc(F)c(=O)[nH]c4=O)OC3COP(=O)(O)OC3CC(n4cc(F)c(=O)[nH]c4=O)OC3COP(=O)(O)OC3CC(n4cc(F)c(=O)[nH]c4=O)OC3COP(=O)(O)OC3CC(n4cc(F)c(=O)[nH]c4=O)OC3COP(=O)(O)OC3CC(n4cc(F)c(=O)[nH]c4=O)OC3COP(=O)(O)OC3CC(n4cc(F)c(=O)[nH]c4=O)OC3COP(=O)(O)OC3CC(n4cc(F)c(=O)[nH]c4=O)OC3COP(=O)(O)OC3CC(n4cc(F)c(=O)[nH]c4=O)OC3CO)O2)cc1F (centres undefined) | > 50 | > 50 | > 50 | > 50 | > 50 | > 50 |  | > 50 | > 50 |  | > 10 | > 50 | > 50 | > 50 | > 50 | > 50 | > 50 | > 50
4 | CC(=O)OCc1cccc(O)c1C(=O)CCC=C(C)C | > 100 | > 100 | > 100 | > 100 | > 100 | > 100 | > 100 | > 100 | > 100 | > 100 | > 100 | > 100 | > 100 | > 100 | > 100 | > 100 | > 100 | > 100
5 | COc1cc(COC(=O)N2CCCCC2C(=O)O)c([N+](=O)[O-])cc1OC (centres undefined) | > 100 | > 100 | > 100 | > 100 | > 100 | > 100 | > 100 | > 100 | > 100 | > 100 | > 100 |  | > 100 | > 100 | > 100 | > 100 | > 100 | > 100
6 | O=C(O)CN1CCNCCN(CC(=O)O)CCNCC1 | > 100 | > 100 | > 74.7 | 15.2 | > 100 | > 100 | > 100 | > 31.6 | > 100 | > 100 | > 100 | > 100 | > 100 | > 100 | > 100 | > 100 | > 100 | > 100
7 | CC/C(Cl)=N\OC(=O)Nc1ccccc1OC(F)(F)F | 3.69 | 37.8 | > 24.2 | 3.6 | 37.3 | 44.4 | 17.6 | 22.9 | 35.5 | 22.2 | 33.5 | 32.8 | 37.3 | 53.9 | 14.4 | 23.3 | > 57.8 | 4.12
8 | COCC[N+](CCNC(=O)c1cccc2c(N)c3cccc(C)c3nc12)(CCOC)Cc1ccc([N+](=O)[O-])cc1 | > 100 | 27.2 | > 100 | 40.1 | > 100 | 76.5 |  | > 100 | > 100 | 99.1 | > 100 | > 100 |  | > 100 | 37.3 | > 100 | 87.5 | 27.2
9 | C/C(O)=C(/C=N\C(=S)Nc1ccc(Cl)c(Cl)c1)C(=O)Nc1ccccc1C | > 100 | > 100 | > 100 | 60.1 | > 100 | 87.1 |  | > 100 | 61.1 | > 100 | > 100 | > 100 | > 100 | 84.2 | 45.7 | > 100 | > 100 | 
10 | CC(=O)Nc1ccc2c3c(cc(O)c2c1)N(C(=O)CCCC(=O)Nc1ccc2c4c(cc(O)c2c1)N(C(=O)OC(C)(C)C)CC4CCl)CC3CCl (centres undefined) | 31.2 | 1.91 | > 50 | 1.71 | > 25.2 | > 13.1 | 2.75 | 3.34 | > 50 | 2.89 | > 42.9 | 1.84 | > 15.6 | > 15 | 12.7 | 13.2 |  | > 34.8
11 | CC1(C)CC(=O)C(CC(C(=O)C(=O)Nc2cc(C(F)(F)F)ccc2Cl)C(=O)c2ccco2)C(=O)C1 (centres undefined) | > 100 | > 100 | > 100 | > 100 |  | > 100 | > 100 | > 100 | > 100 | > 100 | > 100 | > 100 | > 100 | > 100 | > 100 | > 100 | > 100 | > 100
12 | COc1ccc(/C=C/C(=O)c2nc3ccccc3[nH]2)cc1 | 34.5 |  | > 40.5 | > 29.7 | > 88.1 | 22.9 | 61.7 | 32.9 | 53.5 | 48.5 | > 84.8 | > 100 | 86.1 | 77.3 | 53.7 | > 59.1 | > 64.5 | > 29.8
13 | Cn1c(N(CCO)CCO)cnc1[N+](=O)[O-] | > 100 |  | > 100 | > 100 | > 100 | > 100 | > 100 | > 100 | > 100 | > 100 | > 100 | > 100 | > 100 | > 100 | > 100 | > 100 | > 100 | > 100
14 | CSC(=NC1CC(n2cc(C)c(=O)[nH]c2=O)OC1CO)NC#N (centres undefined) | > 100 | > 100 | > 100 | > 100 | > 100 | > 100 | > 100 | > 100 | > 100 | > 100 | > 100 | > 100 | > 100 | > 100 | > 100 | > 100 | > 100 | 
15 | NC(=O)Cc1ncn(-c2ccccc2)n1 | > 100 |  | > 100 | > 100 | > 100 | > 100 | > 100 | > 100 | > 100 | > 100 | > 100 | > 100 | > 100 | > 100 | > 100 | > 100 | > 100 | > 100
16 | Nc1ncnc2c1ncn2[C@@H]1C[C@H]1CO | > 100 | > 100 | > 100 | > 100 | > 100 | > 100 | > 100 | > 100 | > 100 | > 100 | > 100 | > 100 |  | > 100 | > 100 | > 100 |  | > 100
17 | CCCCOP(=O)(OCCCC)/C(C#N)=C/c1ccc(C)o1 | > 100 | > 100 | > 100 |  | > 100 | > 100 | 99.2 | 95.5 | 64.4 | 57.6 | > 100 | 77.3 | > 100 | > 100 | > 100 | 78.5 | > 100 | > 100
18 | O=C(Cn1c(C(=O)/C=C/c2ccco2)nc2ccccc21)c1ccc(Cl)cc1 | > 100 | 33.6 | 99.4 | 41 | > 100 | 92.6 | 40.2 | 50.2 | 30.4 | > 100 |  | 27.8 | > 100 | > 100 | > 100 | 58.2 | 58.6 | 32.9
19 | COC(=O)[C@@]12CC[C@]1(C(=O)OC)C1C(C)=CC(=O)O[C@@]12C (some centres undefined) | > 100 | > 100 | > 100 | > 100 | > 100 | > 100 | > 100 | > 100 | > 100 | > 100 | > 100 |  | > 100 | > 100 | > 100 | > 100 | > 100 | > 100
20 | COc1cc(CNc2nc3ccccc3nc2-c2cccs2)cc(OC)c1OC | 29.3 | > 100 | > 100 | > 100 | > 100 | > 100 | 79.3 | 95.8 | 51.2 | > 100 | > 100 |  | > 100 |  | > 100 |  | > 100 | 53.4
21 | COC(=O)c1cc(C)n2c1CS[C@@H]2c1ccccc1 | > 100 |  | > 100 | > 100 | > 100 | > 100 | > 100 | > 100 | 87 | > 100 | > 100 | 91.8 | > 100 | > 100 | 93.1 | 73.4 | > 100 | 84.5
22 | CN(C)C1(C(=O)O)CC1 | > 100 | > 100 | > 100 | > 100 | > 100 | > 100 | > 100 | > 100 | > 100 | > 100 | > 100 |  |  | > 100 | > 100 | > 100 | > 100 | > 100
23 | COc1ccc(-c2nc(N(C)C)c3ccccc3n2)cc1 | 53.5 | 23.5 | 37.8 | 32.2 | 51.5 | 22.7 | 42.1 | 32.5 | 36.7 |  | 46.3 | 41.7 | 48.2 | > 100 | 49.1 | 44.2 | 99.3 | 24.3
24 | COc1ccc(OC)c(C2CCCc3c2cnc2nc(N)nc(N)c32)c1 (centres undefined) | > 100 |  | > 100 | > 100 | > 100 | > 100 | > 100 | > 100 | > 100 | > 100 | > 100 | > 100 | > 100 | > 100 | > 100 | > 100 | > 100 | > 100
25 | CCN(CC)CCCC(C)NC(=O)c1cc(-c2nccn2C)nc2ccc(C)cc12 (centres undefined) | > 100 | > 100 | > 100 | > 100 | > 100 | > 100 | > 100 | > 100 | > 100 |  |  | > 100 |  | > 100 | > 100 | > 100 | > 100 | > 100
26 | OC(c1ccsc1)c1cc2ccccc2s1 (centres undefined) | > 10 | > 10 | > 10 | > 10 | > 10 | > 10 |  | > 10 | > 10 | > 10 | > 10 | > 10 | > 10 | > 10 | > 10 | > 10 | > 10 | > 10
